# Experimental data from ChEMBL document CHEMBL1150322, “Aminopyrazine CB1 receptor inverse agonists” (Bioorg Med Chem Lett, 2008).
# The source made the active and inactive calls. No cut-off for these calls is given here.
# Tests used:
# [1] = molecular target: T1, Cannabinoid receptor 1 (Homo sapiens, UniProt P21554); type: functional, cell-based, Sf9
# Description: Antagonist activity at human CB1 receptor expressed in SF9 cells assessed as inhibition of CP-55940-stimulated GTPgammaS binding
# [2] = molecular target: CYP3A4 (Homo sapiens, UniProt P08684); assay: in vitro; conditions: human liver microsomes, probe midazolam
# [3] = physchem; conditions: aqueous, pH 7.4
# Description: Aqueous solubility at pH 7.4
# [4] = Drug level at Tmax in rat plasma at 1 mg/kg, po qd after 19 days; type: ADME, organism-based; design: dose 1 mg/kg, route oral; conditions: read-out: Drug uptake
# [5] = species on record: Rattus norvegicus; assay: Decrease in blood leptin level in rat after 18 days; type: functional, organism-based
# [6] = molecular target: Cannabinoid receptor 1 (Rattus norvegicus, UniProt P20272)
# Description: Antagonist activity at rat CB1 receptor in SF9 cells assessed as inhibition of CP-55940-stimulated GTPgammaS binding
# [7] = Drug level in rat plasma 1 mg/kg, po qd after 19 days measured 17 hrs after last dose; type: ADME, organism-based; design: dose 1 mg/kg, route oral; conditions: read-out: Drug uptake
# [8] = tested on: Rattus norvegicus; assay: Reduction in cumulative food intake in subchronic diet-induced rat at 5 mg/kg, po qd after 18 days relative to control; type: functional; design: scale not given: the % may be the effect or the level left
# [9] = species on record: Rattus norvegicus; assay: Decrease in blood glucose level in rat after 18 days; type: functional, organism-based
# [10] = Drug level at Tmax in rat brain at 1 mg/kg, po qd after 19 days; type: ADME, organism-based; design: dose 1 mg/kg, route oral; conditions: read-out: Drug uptake
# [11] = molecular target: Cannabinoid receptor 2 (Homo sapiens, UniProt P34972)
# Description: Antagonist activity at human CB2 receptor in SF9 cells assessed as inhibition of CP-55940-stimulated GTPgammaS binding
# [12] = tested on: Rattus norvegicus; assay: Reduction in cumulative food intake in subchronic diet-induced rat at 1 mg/kg, po qd after 18 days relative to control; type: functional; design: scale not given: the % may be the effect or the level left
# [13] = species on record: Rattus norvegicus; assay: animal or person; conditions: po, 24 h, read-out: INH
# Description: Inhibition of food intake in overnight fed diet-induced obesity rat model at 5 mg/kg, po after 24 hrs relative to control
# [14] = molecular target: Rattus norvegicus; assay: Ex vivo receptor occupancy by displacement of [3H]CP-55940 from rat CB1 receptor in po dosed rat cerebellum membrane after 3 hrs; type: functional, organism-based
# [15] = tested on: Homo sapiens; assay: Ex vivo receptor occupancy by displacement of [3H]CP-55940 from human CB1 receptor in […] after 3 hrs; type: functional; conditions: read-out: ID50 (the source's name)
# [16] = Drug level at Tmax in rat brain at 5 mg/kg, po qd after 19 days; type: ADME, organism-based; design: dose 5 mg/kg, route oral; conditions: read-out: Drug uptake
# [17] = species on record: Homo sapiens; assay: Selectivity for human CB1 receptor over human CB2 receptor
# [18] = Drug level in rat brain at 5 mg/kg, po qd after 19 days measured 17 hrs after last dose; type: ADME, organism-based; design: dose 5 mg/kg, route oral; conditions: read-out: Drug uptake
# [19] = tested on: Rattus norvegicus; assay: Reduction in body weight in subchronic diet-induced rat at 5 mg/kg, po qd after 18 days relative to control; type: functional; design: scale not given: the % may be the effect or the level left
# [20] = Drug level in rat plasma 5 mg/kg, po qd after 19 days measured 17 hrs after last dose; type: ADME, organism-based; design: dose 5 mg/kg, route oral; conditions: read-out: Drug uptake
# [21] = tested on: Rattus norvegicus; assay: Reduction in body weight in subchronic diet-induced rat at 1 mg/kg, po qd after 18 days relative to control; type: functional; design: scale not given: the % may be the effect or the level left
# [22] = molecular target: T1, Cannabinoid receptor 1; type: functional, cell-based, Sf9; remark: listed apart in the source
# Description: Inverse agonist at human CB1 receptor expressed in SF9 cells assessed as decrease in GTPgammaS level
# [23] = Drug level at Tmax in rat plasma at 5 mg/kg, po qd after 19 days; type: ADME, organism-based; design: dose 5 mg/kg, route oral; conditions: read-out: Drug uptake
# [24] = species on record: Rattus norvegicus; assay: Decrease in blood insulin level in rat after 18 days; type: functional, organism-based
# [25] = Drug level in rat brain at 1 mg/kg, po qd after 19 days measured 17 hrs after last dose; type: ADME, organism-based; design: dose 1 mg/kg, route oral; conditions: read-out: Drug uptake
# [26] = tested on: Rattus norvegicus; assay: Inhibition of food intake in overnight fed diet-induced obesity rat model at 10 mg/kg, po after 24 hrs relative to control; type: functional
# Chain of CYP3A4 (P08684 whole entry): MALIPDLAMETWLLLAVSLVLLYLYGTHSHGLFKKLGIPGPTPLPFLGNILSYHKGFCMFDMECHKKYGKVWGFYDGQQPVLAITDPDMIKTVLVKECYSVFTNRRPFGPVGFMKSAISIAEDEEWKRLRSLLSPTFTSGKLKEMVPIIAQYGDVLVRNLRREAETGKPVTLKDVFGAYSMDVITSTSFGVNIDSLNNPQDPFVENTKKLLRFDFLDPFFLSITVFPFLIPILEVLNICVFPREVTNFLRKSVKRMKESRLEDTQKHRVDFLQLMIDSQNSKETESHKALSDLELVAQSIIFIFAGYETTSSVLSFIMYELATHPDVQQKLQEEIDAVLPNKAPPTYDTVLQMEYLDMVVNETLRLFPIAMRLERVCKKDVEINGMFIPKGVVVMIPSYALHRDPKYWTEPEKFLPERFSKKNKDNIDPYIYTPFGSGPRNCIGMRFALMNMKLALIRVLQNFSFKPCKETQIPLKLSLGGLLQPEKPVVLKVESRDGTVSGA
# Chain of Cannabinoid receptor 2 (P34972 whole entry): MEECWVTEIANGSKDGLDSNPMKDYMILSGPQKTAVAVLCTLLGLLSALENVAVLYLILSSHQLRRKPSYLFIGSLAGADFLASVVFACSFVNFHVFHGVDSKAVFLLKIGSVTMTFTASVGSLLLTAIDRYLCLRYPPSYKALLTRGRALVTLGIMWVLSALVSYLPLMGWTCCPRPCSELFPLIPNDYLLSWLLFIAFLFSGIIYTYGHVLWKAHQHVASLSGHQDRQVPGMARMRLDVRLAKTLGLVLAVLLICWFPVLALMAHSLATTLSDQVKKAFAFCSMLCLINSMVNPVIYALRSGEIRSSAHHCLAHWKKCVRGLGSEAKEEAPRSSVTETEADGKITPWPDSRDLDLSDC
# Chain of Cannabinoid receptor 1 (Rattus norvegicus, UniProt P20272) (P20272 whole entry): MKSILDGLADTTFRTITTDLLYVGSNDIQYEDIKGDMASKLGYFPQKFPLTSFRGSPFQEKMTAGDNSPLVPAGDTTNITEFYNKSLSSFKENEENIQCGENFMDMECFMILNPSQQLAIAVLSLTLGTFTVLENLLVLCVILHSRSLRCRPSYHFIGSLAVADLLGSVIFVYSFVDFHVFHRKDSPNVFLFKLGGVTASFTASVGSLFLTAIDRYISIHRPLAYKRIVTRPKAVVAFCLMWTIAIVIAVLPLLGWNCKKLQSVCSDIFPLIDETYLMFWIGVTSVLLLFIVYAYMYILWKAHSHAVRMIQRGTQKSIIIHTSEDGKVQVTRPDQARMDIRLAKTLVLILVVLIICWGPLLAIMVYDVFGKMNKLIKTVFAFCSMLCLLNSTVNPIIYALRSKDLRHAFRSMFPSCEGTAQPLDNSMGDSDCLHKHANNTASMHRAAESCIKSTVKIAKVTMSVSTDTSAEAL
# T1 sequence (P21554 whole entry): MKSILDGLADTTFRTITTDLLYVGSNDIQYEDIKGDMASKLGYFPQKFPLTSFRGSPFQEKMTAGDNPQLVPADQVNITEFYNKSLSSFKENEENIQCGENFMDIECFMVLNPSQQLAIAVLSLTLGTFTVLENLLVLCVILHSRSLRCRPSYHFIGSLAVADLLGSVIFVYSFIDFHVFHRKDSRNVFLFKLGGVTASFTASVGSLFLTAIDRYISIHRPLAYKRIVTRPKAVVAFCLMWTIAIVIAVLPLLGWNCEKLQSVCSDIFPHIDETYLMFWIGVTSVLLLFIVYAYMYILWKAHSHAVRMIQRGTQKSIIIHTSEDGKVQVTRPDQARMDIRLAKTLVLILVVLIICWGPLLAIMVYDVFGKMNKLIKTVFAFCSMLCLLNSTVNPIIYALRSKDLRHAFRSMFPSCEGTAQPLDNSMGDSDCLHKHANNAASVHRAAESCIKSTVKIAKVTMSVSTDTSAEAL
compound,measurement,setting,value
CCNC1(C(N)=O)CCN(c2cnc(-c3ccc(Cl)cc3)c(-c3ccnc(Cl)c3)n2)CC1,Ki,[1],0.67 nM
same,inhibition at 5 µM,[2],54%
same,solubility,[3],21.8 µg/mL
CC(C)C(=O)NC1CCN(c2cnc(-c3ccc(C(F)(F)F)cc3)c(-c3ccncc3Cl)n2)CC1,Cmax,[4],121 ng/mL
same,Activity,[5],Dose-dependent effect
same,Ki,[6],0.41 nM
same,Ki,[1],0.24 nM
same,concentration at 17 h,[7],44.2 ng/mL
same,Activity,[8],27.6%
same,inhibition at 5 µM,[2],< 5%
same,Activity,[9],Active
same,concentration at 456 h,[10],235 ng/mL
same,Ki,[11],4940 nM
same,Activity,[12],18.8%
same,inhibition in vivo at 5 mg/kg,[13],80%
same,solubility,[3],4.5 µg/mL
same,Ki,[14],4.4 nM
same,ED50,[15],0.3 mg/kg
same,concentration at 456 h,[16],630 ng/mL
same,Ratio Ki,[17],> 2000
same,concentration at 17 h,[18],253 ng/mL
same,Activity,[19],8.5%
same,concentration at 17 h,[20],142 ng/mL
same,Activity,[21],4.8%
same,IC50,[22],0.54 nM
same,Cmax,[23],346 ng/mL
same,Activity,[24],Active
same,concentration at 17 h,[25],110 ng/mL
CCC(=O)NC1CCN(c2cnc(-c3ccc(C(F)(F)F)cc3)c(-c3ccncc3Cl)n2)CC1,Ki,[1],0.8 nM
same,inhibition at 5 µM,[2],11%
same,solubility,[3],24 µg/mL
O=S1(=O)CCN(c2cnc(-c3ccc(C(F)(F)F)cc3)c(-c3ccncc3Cl)n2)CC1,Ki,[6],0.83 nM
same,Ki,[1],0.83 nM
same,inhibition in vivo at 10 mg/kg,[26],71%
same,inhibition at 5 µM,[2],< 5%
same,Ki,[11],1900 nM
same,solubility,[3],23 µg/mL
same,Ratio Ki,[17],> 2000
same,IC50,[22],4.2 nM
CCNC1(C(N)=O)CCN(c2cnc(-c3ccc(Cl)cc3)c(-c3ccc(C#N)cc3)n2)CC1,Ki,[1],32.3 nM
same,solubility,[3],36 µg/mL
Cc1c(C(=O)NN2CCCCC2)nn(-c2ccc(Cl)cc2Cl)c1-c1ccc(Cl)cc1 [RIMONABANT],Activity,[8],13.8%
same,inhibition at 5 µM,[2],< 5%
same,Activity,[9],Active
same,inhibition in vivo at 5 mg/kg,[13],73%
same,solubility,[3],0.3 µg/mL
same,Ki,[14],1.1 nM
same,ED50,[15],0.5 mg/kg
same,concentration at 456 h,[16],318 ng/mL
same,concentration at 17 h,[18],65 ng/mL
same,Activity,[19],4.1%
same,concentration at 17 h,[20],3 ng/mL
same,Cmax,[23],346 ng/mL
same,Activity,[24],Active
CCNC1(C(N)=O)CCN(c2cnc(-c3ccc(OCC)cc3)c(-c3ccc(OCC)cc3)n2)CC1,Ki,[1],2.84 nM
same,inhibition at 5 µM,[2],< 5%
CCNC1(C(N)=O)CCN(c2cnc(-c3ccc(Cl)cc3)c(-c3ccncc3)n2)CC1,Ki,[1],9.81 nM
same,inhibition at 5 µM,[2],71%
same,solubility,[3],74.9 µg/mL
CCNC1(C(N)=O)CN(c2cnc(-c3ccc(C(F)(F)F)cc3)c(-c3ccnc(Cl)c3)n2)C1,Ki,[6],2.06 nM
same,Ki,[1],1.2 nM
same,inhibition in vivo at 10 mg/kg,[26],58%
same,inhibition at 5 µM,[2],< 5%
same,Ki,[11],> 50000 nM
same,solubility,[3],38 µg/mL
same,Ratio Ki,[17],> 2000
same,IC50,[22],3.07 nM
CCNC1(C(N)=O)CCN(c2cnc(-c3ccc(Cl)cc3)c(-c3ccc(Cl)cc3Cl)n2)CC1,Ki,[1],0.91 nM
same,inhibition at 5 µM,[2],< 5%
CCNC1(C(N)=O)CCN(c2cnc(-c3ccc(OCC)cc3)c(-c3ccccc3Cl)n2)CC1,Ki,[1],15 nM
same,inhibition at 5 µM,[2],10%
same,solubility,[3],1.2 µg/mL
CCNC1(C(N)=O)CCN(c2cnc(-c3ccc(C(F)(F)F)cc3)c(-c3ccnc(Cl)c3)n2)CC1,Ki,[1],0.87 nM
same,inhibition at 5 µM,[2],< 5%
same,solubility,[3],25.5 µg/mL
CCNC1(C(N)=O)CCN(c2cnc(-c3ccc(F)cc3)c(-c3ccc(Cl)cc3Cl)n2)CC1,Ki,[1],1.75 nM
same,inhibition at 5 µM,[2],20.5%
CCNC1(C(N)=O)CCN(c2cnc(-c3ccc(Cl)cc3)c(-c3ccccc3Cl)n2)CC1,Ki,[1],1.66 nM
same,inhibition at 5 µM,[2],9.7%
same,solubility,[3],1.25 µg/mL
